Calls of active or inactive are those of the source.
Columns and labels:
Format in all cases: functional
[1] = molecular target: T1, DNA repair and recombination protein RAD54-like (Homo sapiens, UniProt Q92698); experiment: RAD54 Holliday junction migration blockers – biochemical, fluorescence, cherry-picked samples, dose series, confirmation (AID 651657)
T1 sequence (Q92698 whole entry): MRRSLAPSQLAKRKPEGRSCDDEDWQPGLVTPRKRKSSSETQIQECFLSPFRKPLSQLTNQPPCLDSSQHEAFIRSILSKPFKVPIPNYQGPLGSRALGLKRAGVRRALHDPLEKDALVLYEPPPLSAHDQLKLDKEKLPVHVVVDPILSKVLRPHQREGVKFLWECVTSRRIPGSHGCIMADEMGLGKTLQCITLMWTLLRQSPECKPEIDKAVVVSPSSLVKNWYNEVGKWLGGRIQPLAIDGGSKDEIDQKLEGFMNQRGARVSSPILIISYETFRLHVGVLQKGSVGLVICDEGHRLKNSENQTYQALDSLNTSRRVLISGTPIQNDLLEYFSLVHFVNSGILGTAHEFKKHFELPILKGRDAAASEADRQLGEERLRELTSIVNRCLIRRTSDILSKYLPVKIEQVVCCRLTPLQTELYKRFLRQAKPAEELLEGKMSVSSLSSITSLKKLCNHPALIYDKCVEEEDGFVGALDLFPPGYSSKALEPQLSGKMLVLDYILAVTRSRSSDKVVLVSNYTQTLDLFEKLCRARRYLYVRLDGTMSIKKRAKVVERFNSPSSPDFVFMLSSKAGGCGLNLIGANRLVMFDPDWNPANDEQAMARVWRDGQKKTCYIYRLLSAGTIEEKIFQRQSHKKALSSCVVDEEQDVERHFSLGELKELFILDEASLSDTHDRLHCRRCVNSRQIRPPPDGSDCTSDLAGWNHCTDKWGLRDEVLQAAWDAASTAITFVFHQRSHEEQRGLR

[2] = molecular target: T2, Sentrin-specific protease 8 (Homo sapiens, UniProt Q96LD8)
T2 sequence (Q96LD8 whole entry): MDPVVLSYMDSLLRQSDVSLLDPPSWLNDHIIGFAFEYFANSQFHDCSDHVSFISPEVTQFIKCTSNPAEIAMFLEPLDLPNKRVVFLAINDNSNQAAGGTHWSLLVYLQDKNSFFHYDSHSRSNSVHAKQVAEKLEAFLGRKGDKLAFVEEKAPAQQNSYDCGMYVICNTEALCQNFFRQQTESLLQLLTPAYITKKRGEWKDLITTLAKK

[3] = molecular target: T2, Sentrin-specific protease 8; remark: listed apart in the source
Protein RecA = molecular target: T3, Protein RecA (Mycobacterium tuberculosis, UniProt P9WHJ3); experiment: Fluorescence Cell-Free Homogeneous Dose Retest to Identify Inhibitors of RecA-Intein Splicing Activity. [Related pubchem assays (depositor defined):AID2097, AID2223, AID489010, AID492950]
T3 sequence (P9WHJ3 whole entry): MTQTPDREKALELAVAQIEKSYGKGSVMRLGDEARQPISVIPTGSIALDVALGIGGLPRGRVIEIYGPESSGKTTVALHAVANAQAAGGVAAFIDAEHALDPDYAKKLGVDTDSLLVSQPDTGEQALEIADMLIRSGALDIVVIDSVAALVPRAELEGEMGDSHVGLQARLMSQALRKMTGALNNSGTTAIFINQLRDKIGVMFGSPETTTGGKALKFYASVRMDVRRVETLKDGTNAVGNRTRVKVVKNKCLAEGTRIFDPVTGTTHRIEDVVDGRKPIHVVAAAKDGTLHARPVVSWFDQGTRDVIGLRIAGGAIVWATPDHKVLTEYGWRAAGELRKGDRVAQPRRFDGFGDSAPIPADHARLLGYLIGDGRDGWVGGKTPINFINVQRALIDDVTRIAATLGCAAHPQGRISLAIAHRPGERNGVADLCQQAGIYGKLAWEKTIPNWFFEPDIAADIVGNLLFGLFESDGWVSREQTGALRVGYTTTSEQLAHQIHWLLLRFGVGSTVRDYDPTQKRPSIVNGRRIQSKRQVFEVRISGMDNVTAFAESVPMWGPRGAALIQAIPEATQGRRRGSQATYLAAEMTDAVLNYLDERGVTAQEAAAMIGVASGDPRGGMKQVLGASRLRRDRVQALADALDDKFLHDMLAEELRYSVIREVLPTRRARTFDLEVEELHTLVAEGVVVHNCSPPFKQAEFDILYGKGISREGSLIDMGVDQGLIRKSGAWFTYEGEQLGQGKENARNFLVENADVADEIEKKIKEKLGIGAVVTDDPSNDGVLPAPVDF

[4] = molecular target: T4, Replicative DNA helicase DnaB (Mycobacterium tuberculosis, UniProt P9WMR3); experiment: DnaB intein splicing inhibitors, dose response, biochemical, cell-free fluorescence (AID 449749)
T4 sequence (P9WMR3 whole entry): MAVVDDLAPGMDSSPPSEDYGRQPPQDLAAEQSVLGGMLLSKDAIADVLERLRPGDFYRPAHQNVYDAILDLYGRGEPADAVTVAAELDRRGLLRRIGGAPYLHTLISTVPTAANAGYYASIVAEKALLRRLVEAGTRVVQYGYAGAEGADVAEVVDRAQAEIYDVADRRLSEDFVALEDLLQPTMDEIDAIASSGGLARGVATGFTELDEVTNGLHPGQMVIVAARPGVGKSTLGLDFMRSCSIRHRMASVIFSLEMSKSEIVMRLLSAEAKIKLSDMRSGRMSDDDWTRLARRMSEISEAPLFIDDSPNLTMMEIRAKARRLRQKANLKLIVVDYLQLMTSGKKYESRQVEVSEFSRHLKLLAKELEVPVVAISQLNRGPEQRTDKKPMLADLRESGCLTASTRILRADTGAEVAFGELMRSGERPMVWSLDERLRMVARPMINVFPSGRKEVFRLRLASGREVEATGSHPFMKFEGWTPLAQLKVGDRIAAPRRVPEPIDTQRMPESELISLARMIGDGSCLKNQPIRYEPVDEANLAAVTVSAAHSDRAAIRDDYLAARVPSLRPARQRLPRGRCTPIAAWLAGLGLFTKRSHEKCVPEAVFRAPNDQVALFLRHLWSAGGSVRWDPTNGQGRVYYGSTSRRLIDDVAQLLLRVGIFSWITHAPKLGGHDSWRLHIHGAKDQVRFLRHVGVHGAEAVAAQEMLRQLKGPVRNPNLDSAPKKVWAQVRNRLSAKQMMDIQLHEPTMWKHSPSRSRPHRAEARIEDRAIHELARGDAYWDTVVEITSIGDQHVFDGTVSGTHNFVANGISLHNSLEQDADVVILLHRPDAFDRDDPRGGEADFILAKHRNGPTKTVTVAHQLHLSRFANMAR

Protein skinhead-1 = molecular target: T5, Protein skinhead-1 (Caenorhabditis elegans, UniProt P34707)
T5 sequence (P34707 whole entry): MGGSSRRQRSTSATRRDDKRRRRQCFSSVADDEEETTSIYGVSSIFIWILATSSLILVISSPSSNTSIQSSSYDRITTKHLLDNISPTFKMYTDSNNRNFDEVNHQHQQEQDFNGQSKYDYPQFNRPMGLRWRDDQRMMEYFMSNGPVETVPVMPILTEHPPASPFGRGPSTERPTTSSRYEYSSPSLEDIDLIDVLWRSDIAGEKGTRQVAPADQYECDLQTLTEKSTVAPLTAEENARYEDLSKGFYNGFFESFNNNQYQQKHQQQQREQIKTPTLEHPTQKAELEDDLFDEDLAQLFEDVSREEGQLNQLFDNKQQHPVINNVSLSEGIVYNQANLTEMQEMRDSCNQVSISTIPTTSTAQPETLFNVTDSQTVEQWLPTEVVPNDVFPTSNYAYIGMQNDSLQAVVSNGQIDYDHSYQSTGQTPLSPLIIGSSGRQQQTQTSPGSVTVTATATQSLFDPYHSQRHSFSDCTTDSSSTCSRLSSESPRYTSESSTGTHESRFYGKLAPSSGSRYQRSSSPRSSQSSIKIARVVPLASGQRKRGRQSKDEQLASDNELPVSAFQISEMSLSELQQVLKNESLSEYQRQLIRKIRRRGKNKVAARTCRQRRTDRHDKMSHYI

[5] = viability of PTEN-deleted HCT116 cells – cell-based, HCT116 PTEN knockout, dose response (AID 1047);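 further: HCT116 colon tumor cells with PTEN knocked out; cells exposed to compound for 60 hours before readout; potency for loss of cell viability measured by luminescence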
[6] = viability of HCT116 lacking mutant beta-catenin – cell-based, human colon tumor, dose response (AID 1045);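 further: HCT116 colon tumor cells with beta catenin knocked out; cells exposed to compound for 60 hours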

CCN(CC)CCn1c2ccc(F)cc2c2nc(C)sc21
AC50 [1]: 20.9 µM (active)

COC/C=C/C1=CC2=CC(=O)C(C)(OC(=O)c3cnc4ccccc4n3)C(=O)C2=CN1CCCCO (stereo not given)
IC50 [2]: 17.6 µM (active)
IC50 [3]: 6.81 µM (active)

Cc1n[nH]c(O)c1C(c1cc(Br)ccc1O)c1c(C)n[nH]c1O
EC50 (Protein RecA): 0.275 µM (active)
AC50 [4]: 0.347 µM (active)
IC50 [2]: 23 µM (active)
IC50 [3]: 34 µM (active)

CC1(OC(=O)CCc2ccccc2)C(=O)C=C2C=C3CCCN3C=C2C1=O (stereo not given)
IC50 [2]: 18.1 µM (active)
IC50 [3]: 12.1 µM (active)

COC(=O)CCCC1=CC2=CC(=O)C(C)(OC(=O)c3cccs3)C(=O)C2=CN1CC(C)C (stereo not given)
IC50 (Protein skinhead-1): > 100 µM (inactive)
IC50 [2]: 11.1 µM (active)
IC50 [3]: 7.62 µM (active)

CCN(CC)CCCNc1nc2cc(OC)c(OC)cc2c2nc(-c3cccnc3)nn12
EC50 [5]: 8.62 µM (active)
AC50 [1]: 2.15 µM (active)
EC50 [6]: 7.33 µM (active)

Source: ChEMBL document CHEMBL1201862, “PubChem BioAssay data set” (2004)
